These results are taken from patent EP0745083B1, “2-HETEROARYL-5,11-DIHYDRO-6H-DIPYRIDO [3,2-b:2',3'-e][1,4]DIAZEPINES AND THEIR USE IN THE PREVENTION OR TREATMENT OF HIV INFECTION” (BOEHRINGER INGELHEIM PHARMACEUTICALS INC., priority 1994, dated 1995).

Assay type in all cases: biochemical, Human Immunodeficiency Virus (HIV-1)
Experiment [1] concerns the target T1, HIV-1 RT wild type (WT) enzyme (Human immunodeficiency virus type 1 group M subtype B, UniProt P03367).
T1 construct: Reverse transcriptase enzyme from the LAV strain of Human Immunodeficiency Virus (HIV-1) (1) was isolated from the bacterial strain JM109; made in house; host or cells: E. coli JM109 (clone pBRTprt1+ in vector pIBI21, lac promoter)
The experiment is described as follows: Reverse Transcriptase (RT) Assay, wild type enzyme (RNA-dependent DNA polymerase activity). The conditions noted are these: 1 µM compound; for inhibition at 1 µM: read-out: Reverse Transciptase Assay % inhibition (1 µM) WT. An excerpt: Utilizing the Reverse Transcriptase (RT) Assay described below, compounds can be tested for their ability to inhibit the RNA-dependent DNA polymerase activity of HIV-1 RT. Certain specific compounds described in the Examples which appear below, were so tested.
(§1) Among the enzymes for which Human Immunodeficiency Virus (HIV-1) encodes is a reverse transcriptase (1), so-named because it transcribes a DNA copy from an RNA template. This activity can be quantitatively measured in a cell-free enzyme assay, which has been previously described (2), and is based upon the observation that reverse transcriptase is able to use a synthetic template [poly r(C) primed with oligo d(G)] to transcribe a radio-labelled, acid-precipitable DNA strand utilizing ^3H-dGTP as a substrate. The assay described below utilizes the wild type (WT) enzyme, which is the predominant form of the enzyme observed in patients infected with HIV-1. Utilization of mutant RT eraymes (Y181C and Y181L, prepared by site-directed mutagenesis in which the tyrosine residue at codon 181 has been replaced by a cysteine or a leucine residue, respectively) and analogous assay conditions allows compounds to be evaluated for their effectiveness at inhibiting these mutant enzymes.
Reverse transcriptase enzyme from the LAV strain of Human Immunodeficiency Virus (HIV-1) (1) was isolated from the bacterial strain JM109 (3) expressing the DNA clone pBRTprt1+ (2) which is under the control of the lac promotor in the expression vector pIBI21 (4). An overnight culture grown in 2XYT medium (37°C, 225 rpm) (5) supplemented with 100 µg/mL ampicillin for positive selection is inoculated at a 1:40 dilution into M9 medium supplemented with 10µg/mL thiamine, 0.5% casamino acids, and 50 µg/mL ampicillin (5). The culture is incubated (37°C, 225 rpm) until it reaches an OD540 of 0.3-0.4. At that time the repressor inhibitor IPTG (isopropyl β-D-thiogalactopyranoside) is added to 0.5mM, and the mixture is incubated for 2 additional hours. Bacteria are pelleted, resuspended in a 50mM Tris, 0.6mM EDTA, 0.375M NaCl buffer and digested by the addition of lysozyme (1mg/mL) for 30 minutes on ice. The cells are lysed by the addition of 0.2% NP-40 and brought to 1M NaCl.
After removal of the insoluble debris by centrifugation, the protein is precipitated by the addition of 3 volumes of saturated aqueous ammonium sulfate. The enzyme is pelleted, resuspended in RT buffer (50mM Tris pH 7.5, 1mM EDTA, 5mM DTT, 0.1% NP-40, 0.1M NaCI, and 50% glycerol), and stored at -70°C for further use.
The 2X concentrated stock reaction mixture is aliquoted and stored at -20°C. The mixture is stable and thawed for use in each assay. This enzyme assay has been adapted to a 96 well microtiter plate system, and has been previously described (6). Tris buffer (50 mM, pH 7.4), vehicle (solvent diluted to match the compound dilution), or compounds in vehicle are dispensed into 96-well microtiter plates (10µL/well; 3 wells/ compound). The HIV-1 RT enzyme is thawed, diluted in 50mM Tris pH 7.4 so that fifteen µL of diluted enzyme contain 0.001 Unit (one unit is that amount of enzyme to transform 1 micromole of substrate per minute at 25°C), and fifteen µL are dispensed per well. Twenty µL of 0.12-0.5M EDTA are added to the first three wells of the microtiter plate. EDTA chelates the Mg^++ present and prevents reverse transcription. This group serves as background polymerization which is subtracted from all other groups. Twenty-five ul of the 2X reaction mixture are added to all wells and the assay is allowed to incubate at room temperature for 60 minutes. The assay is terminated by precipitating the DNA in each well with 50µL of 10% trichloracetic acid (TCA) (10% w/v) in sodium pyrophosphate (1% w/v). The microtiter plate is incubated for 15 minutes at 4°C and the precipitate is fixed onto #30 glass fiber paper (Schleicher & Schuell) using a Skatron semi-automatic harvester. […]

Another experiment addresses T2, HIV-1 RT Y181C (Human immunodeficiency virus type 1 group M subtype B, UniProt P03367, Y780C).
T2 construct: Utilization of mutant RT eraymes (Y181C and Y181L, prepared by site-directed mutagenesis); made in house
The experiment can be described thus: Reverse Transcriptase (RT) Assay, Y181C mutant enzyme. As to conditions: 1 µM compound; for inhibition at 1 µM: read-out: Reverse Transciptase Assay % inhibition (1 µM) Y181C.
Source text: as §1
The 2X concentrated stock reaction mixture is aliquoted and stored at -20°C. The mixture is stable and thawed for use in each assay. This enzyme assay has been adapted to a 96 well microtiter plate system, and has been previously described (6). Tris buffer (50 mM, pH 7.4), vehicle (solvent diluted to match the compound dilution), or compounds in vehicle are dispensed into 96-well microtiter plates (10µL/well; 3 wells/ compound). The HIV-1 RT enzyme is thawed, diluted in 50mM Tris pH 7.4 so that fifteen µL of diluted enzyme contain 0.001 Unit (one unit is that amount of enzyme to transform 1 micromole of substrate per minute at 25°C), and fifteen µL are dispensed per well. Twenty µL of 0.12-0.5M EDTA are added to the first three wells of the microtiter plate. EDTA chelates the Mg^++ present and prevents reverse transcription. This group serves as background polymerization which is subtracted from all other groups. Twenty-five ul of the 2X reaction mixture are added to all wells and the assay is allowed to incubate at room temperature for 60 minutes. The assay is terminated by precipitating the DNA in each well with 50µL of 10% trichloracetic acid (TCA) (10% w/v) in sodium pyrophosphate (1% w/v). The microtiter plate is incubated for 15 minutes at 4°C and the precipitate is fixed onto #30 glass fiber paper (Schleicher & Schuell) using a Skatron semi-automatic harvester. The filters are then washed with additional TCA (5%) containing sodium pyrophosphate (1%), rinsed with aqueous ethanol (70%), dried, and transferred to scintillation vials (6). Each vial receives 2 mL of scintillation cocktail and is counted in a Beckman beta counter. The calculation for percent inhibition is as follows: % inhibition =(CPM Mean Test Value - CPM Mean Control Value X100)/(CPM Mean Control Value) [formula]

The target of the next experiment is T3, HIV-1 RT Y188L (Human immunodeficiency virus type 1 group M subtype B, UniProt P03367, Y787L).
T3 construct: effective against the reverse transcriptase of many mutant viruses; made in house
The experiment is described as follows: Reverse Transcriptase (RT) Assay, Y188L mutant enzyme. As to conditions: 1 µM compound.

For “2-(1-Carbamylpyrazol-3-yl)-5,11-dihydro-11-ethyl-5-methyl-6H-dipyrido[3,2-b:2',3'-e][1,4]-diazepin-6-one [Example 7]”, the “Reverse Transciptase Assay % inhibition (1 µM) WT” value in experiment [1] was 94%. Also, on HIV-1 RT Y181C, the “Reverse Transciptase Assay % inhibition (1 µM) Y181C” value came out at 84%. The “Reverse Transciptase Assay % inhibition (1 µM) Y188L” value on HIV-1 RT Y188L was determined as 52%.

On to `CCN1c2ncccc2C(=O)N(C)c2ccc(-c3cnn(C)c3)nc21` [Example 3, 5,11-Dihydro-11-ethyl-5-methyl-2-(1-methylpyrazol-4-yl)-6H-dipyrido[3,2-b:2',3'-e][1,4]-diazepin-6-one], for which the inhibition (in general, the drop in the measured response relative to a control, in per cent) at 1 µM came out at 63% in experiment [1] and 36% on HIV-1 RT Y181C. Moreover, the “Reverse Transciptase Assay % inhibition (1 µM) Y188L” value at HIV-1 RT Y188L is given as 24%.

As to `CCN1c2ncccc2C(=O)N(C)c2ccc(-c3cnn(C(C)=O)c3)nc21` [Example 8, 2-(1-Acetylpyrazol-4-yl)-5,11-dihydro-11-ethyl-5-methyl-6H-dipyrido[3,2-b:2',3'-e][1,4] diazepin-6-one], the inhibition at 1 µM in experiment [1] amounted to 96%; at HIV-1 RT Y181C, 80%. The “Reverse Transciptase Assay % inhibition (1 µM) Y188L” value on HIV-1 RT Y188L was 80%.

As to `CCN1c2ncccc2C(=O)N(C)c2ccc(-c3cc[nH]n3)nc21` [Example 9, 5,11-Dihydro-11-ethyl-5-methyl-2-(3-pyrazolyl)-6H-dipyrido[3,2-b:2',3'-e][1,4]diazepin-6-one], the inhibition at 1 µM (in experiment [1]; at HIV-1 RT Y181C) was 67% in each case. Further, on HIV-1 RT Y188L, the “Reverse Transciptase Assay % inhibition (1 µM) Y188L” value was found to be 20%.

For the compound `CCN1c2ncccc2C(=O)N(C)c2ccc(-c3c[nH]nc3C)nc21` [Example 10, 5,11-Dihydro-11-ethyl-5-methyl-2-(3-methylpyrazol-4-yl)-6H-dipyrido[3,2-b:2',3'-e][1,4]-diazepin-6-one], the values for the inhibition at 1 µM (in experiment [1]; at HIV-1 RT Y181C) were 94% and 73%, respectively. The “Reverse Transciptase Assay % inhibition (1 µM) Y188L” value at HIV-1 RT Y188L is 66%.

In the case of `CCN1c2ncccc2C(=O)N(C)c2ccc(-c3cccn3C)nc21` [Example 11, 5,11-Dihydro-11-ethyl-5-methyl-2-(1-methylpyrrol-2-yl)-6H-dipyrido[3,2-b:2',3'-e][1,4]-diazepin-6-one], the inhibition at 1 µM in experiment [1] is 81%.

Turning to `CCN1c2ncccc2C(=O)N(C)c2ccc(-c3cccn3C(C)=O)nc21` [Example 14, 2-(1-Acetylpyrrol-2-yl)-5,11-dihydro-11-ethyl-5-methyl-6H-dipyrido[3,2-b:2',3'-e][1,4]-diazepin-6-one], the inhibition at 1 µM came out at 74% in experiment [1] and 51% on HIV-1 RT Y181C. Moreover, the “Reverse Transciptase Assay % inhibition (1 µM) Y188L” value on HIV-1 RT Y188L came out at 23%.

Turning to `CCN1c2ncccc2C(=O)N(C)c2ccc(-c3cc[nH]c3C(C)=O)nc21` [Example 15, 2-(2-Acetylpyrrol-3-yl)-5,11-dihydro-11-ethyl-5-methyl-6H-dipyrido[3,2-b:2',3'-e][1,4]-diazepin-6-one], the results for the inhibition at 1 µM (in experiment [1]; on HIV-1 RT Y181C) were 52% and 59%, respectively. Further, on HIV-1 RT Y188L, the “Reverse Transciptase Assay % inhibition (1 µM) Y188L” value is reported as 10%.

For the compound `CCOC(=O)c1cc(-c2ccc3c(n2)N(CC)c2ncccc2C(=O)N3C)c[nH]1` [Example 16, 5,11-Dihydro-2-[2-(ethoxycarbonyl)pyrrol-4-yl]-11-ethyl-5-methyl-6H-dipyrido-[3,2-b:2',3'-e][1,4]diazepin-6-one], the inhibition at 1 µM was determined as 83% in experiment [1] and 74% on HIV-1 RT Y181C.

Consider `CCN1c2ncccc2C(=O)N(C)c2ccc(-c3c[nH]c(C(C)=O)c3)nc21` [Example 17, 2-(2-Acetylpyrrol-4-yl)-5,11-dihydro-11-ethyl-5-methyl-6H-dipyrido[3,2-b:2',3'-e][1,4]-diazepin-6-one], for which the inhibition at 1 µM in experiment [1] is 78%; at HIV-1 RT Y181C it was 62%. In addition, at HIV-1 RT Y188L, the “Reverse Transciptase Assay % inhibition (1 µM) Y188L” value was determined as 27%.

With `CCN1c2ncccc2C(=O)N(C)c2ccc(-c3cc[nH]c3C#N)nc21` [Example 18, 2-(2-Cyanopyrrol-3-yl)-5,11-dihydro-11-ethyl-5-methyl-6H-dipyrido[3,2-b:2',3'-e][1,4]-diazepin-6-one], the inhibition at 1 µM in experiment [1] was 87%; at HIV-1 RT Y181C, 82%. In addition, on HIV-1 RT Y188L, the “Reverse Transciptase Assay % inhibition (1 µM) Y188L” value worked out at 57%.

As for `CCN1c2ncccc2C(=O)N(C)c2ccc(-c3c[nH]c(C#N)c3)nc21` [Example 19, 2-(2-Cyanopyrrol-4-yl)-5,11-dihydro-11-ethyl-5-methyl-6H-dipyrido[3,2-b:2',3'-e][1,4]-diazepin-6-one], the inhibition at 1 µM amounted to 91% in experiment [1] and 75% on HIV-1 RT Y181C. Further, the “Reverse Transciptase Assay % inhibition (1 µM) Y188L” value on HIV-1 RT Y188L is on record as 55%.

In the case of `CCN1c2ncccc2C(=O)N(C)c2ccc(-c3ccn(C)c3)nc21` [Example 20, 5,11-Dihydro-11-ethyl-5-methyl-2-(1-methylpyrrol-3-yl)-6H-dipyrido[3,2-b:2',3'-e][1,4]-diazepin-6-one], the results for the inhibition at 1 µM (in experiment [1]; on HIV-1 RT Y181C) were 65% and 36%, respectively. The “Reverse Transciptase Assay % inhibition (1 µM) Y188L” value on HIV-1 RT Y188L is reported as 26%.

As to `CCN1c2ncccc2C(=O)N(C)c2ccc(-c3c[nH]c(C(=O)O)c3)nc21` [Example 21, 2-(2-Carboxypyrrol-4-yl)-5,11-dihydro-11-ethyl-5-methyl-6H-dipyrido[3,2-b:2',3'-e][1,4]-diazepin-6-one], the inhibition at 1 µM is 33% in experiment [1] and 28% on HIV-1 RT Y181C. The “Reverse Transciptase Assay % inhibition (1 µM) Y188L” value at HIV-1 RT Y188L amounted to 46%.

As to `CCN1c2ncccc2C(=O)N(C)c2ccc(-c3c[nH]c(C(N)=O)c3)nc21` [Example 22, 2-(2-Carbamylpyrrol-4-yl)-5,11-dihydro-11-ethyl-5-methyl-6H-dipyrido[3,2-b:2',3'-e][1,4]-diazepin-6-one], the inhibition at 1 µM in experiment [1] was found to be 76%; at HIV-1 RT Y181C it was 72%. Moreover, the “Reverse Transciptase Assay % inhibition (1 µM) Y188L” value on HIV-1 RT Y188L worked out at 30%.
